Results taken from patent publication US10722505B2, “Substituted 2,4 diamino-quinoline as new anticancer agents” (GENOSCIENCE PHARMA, priority 2014, dated 2020).
One block for each molecule: values may come before it.

Experiments:
[1] = tested on: ALDH+ (CSC) population of MOLM-14 cell line; experiment: Aldefluor kit assay, ALDH+ compartment in MOLM-14; assay type: cell-based, human; details: 72 h, control = 100
Excerpt: Analysis of the of aldehyde dehydrogenase (ALDH) compartment and high activity level of aldehyde dehydrogenase activity (ALDH+) was used to detect tumor initiating cells (cancer stem cells, CSC) population. The Aldefluor™ kit assay (StemCell Technologies, 01700) allowed to assess the activity of drugs on CSC cells like in a MOLM-14 acute myeloid leukemia cell line population (ref: Storms, R. W., Trujillo, A. P., Springer, J. B., Shah, L., Colvin, O. M., Ludeman, S. M., & Smith, C. (1999). Isolation of primitive human hematopoietic progenitors on the basis of aldehyde dehydrogenase activity. Proceedings of the National Academy of Sciences, 96(16), 9118-9123). The Aldefluor™ kit assay was used according to the procedure described by the manufacturer. Briefly, MOLM-14 cell line was cultured in MEM alpha medium supplemented with 10% v/v Fetal Bovine Serum, 1% Penicillin-Streptomycin and maintained at 37° C. with 5% CO2. 5·10^5 cells were used in this assay. Each compound was added at different concentrations (see table 8), and cell cultures were incubated for 72 h. Vehicle (H2O) was used as a control, and all compounds were tested in a constant percentage of vehicle. Cells obtained from cell culture were incubated for 45 minutes at 37° C. with Aldefluor™ buffer assay containing the Bodipy™-aminoacetaldehyde, a fluorescent ALDH aldehyde substrate. ALDH converts the fluorescent substrate BAAA to the Bodipy™-aminoacetic acid (BAA) which is retained in the cell. An active efflux inhibitor is present in the Adelfluor™ assay buffer in order to avoid the active efflux from the cell of the substrate product ALDH dependent converted BAA. The fluorescent signal is directly proportional to the ALDH activity in the cells and is measured by flow cytometry. A negative control is used to measure the background fluorescence level. For such purpose, 4-(N,N-diethylamino)-benzaldehyde (DEAB) was used as selective ALDH inhibitor. A viability cell count was performed using LIVE/DEAD® Fixable Far Red Dead Cell Stain Kit (Invitrogen). The experimental data are analyzed using a computer program, Graphpad Prism v5 (GraphPad Software, Inc. La Jolla, Calif.) and EC50 values were determined as the dose of compound required to reduce absorbance values to 50% of the signal obtained for vehicle treated cell cultures.

MOLM-14 cell line = experiment: CellTiter-Glo growth inhibition assay, MOLM-14 (Example 6); assay type: cell-based, human; details: MOLM-14, 72 h, method of Example 6
Experimental: MOLM-14 cell line was cultured in MEM alpha medium supplemented with 10% v/v Fetal Bovine Serum, 1% Penicillin-Streptomycin and maintained at 37° C. with 5% CO2. 10,000 cells were plated onto 96-well plates immediately before the assay.
Each compound was added at different concentrations (combinations of six concentrations) to each well, and cell cultures were incubated for 72 h. Vehicle (H2O) was used as a control, and all compounds were tested in a constant percentage of vehicle. Cell outgrowth was measured using the CellTiter-Glo® luminescent cell viability assay as described by the manufacturer (Promega, Ref G7571 Madison, Wis., USA) using a Centro (Berthold, France) plate reader.
In each experiment, each point represents the average of triplicates in cell culture.
(§1) The experimental data are analyzed using a computer program, Graphpad Prism v5 (GraphPad Software, Inc. La Jolla, Calif.) and EC50 values were determined as the dose of compound required to reduce absorbance values to 50% of the signal obtained for vehicle treated cell cultures.

BEL-7402 cells line = experiment: CellTiter-Glo growth inhibition assay, BEL-7402 (internal control); assay type: cell-based; details: Homo sapiens, 72 h
Experimental: When performing the assay, dose response test of Doxorubicin on BEL-7402 cells line (human primary hepatocellular carcinoma) will be used as internal control in each assay plate for the assay. The MEM medium supplemented with 5% H2O (5×) will be added into the cells as a negative controls. The final H2O concentration was 1% in each well.
Cells in log-phase are collected and counted. Cell suspensions are added to each well of 384-well plate at 800 cells per well (total volume 40 μl). The margin wells are filled with PBS buffer. Test compound at various concentrations are added in duplicates (add 10 μl 5× compound solutions to the plate). The assay plate is incubated for 72 h in 37° C./5% CO2 incubator. Cell viability was measured using the CellTiter-Glo® luminescent cell viability assay as described by the manufacturer (Promega, Ref G7571). After addition of 100 μL of CellTiter-Glo® reactifs solution, luminescence was measured using a PHERAstar Plus luminometer. Data were recorded by PHERAstar Plus, Data acquisition and analysis were performed using Microsoft Excel program and GraphPad Prism v.6 software.

[2] = tested on: LI1005 HCC patient derived cells; experiment: CellTiter-Glo growth inhibition, HCC patient-derived cells LI1005; assay type: cell-based, human; details: Homo sapiens; LI1005, 72 hours
Experimental: (§2) The patient derived Hepatocellular Carcinoma (HCC) cells were maintained in medium respectively described in table 15 containing 1% penicillin-streptomycin (Life Technologies, 15070-063), with a supplements for primary cell culture (PCS) containing hydrocortisone (50 nM), Epidermal Growth Factor (20 ng/ml), β-fibroblast Growth Factor (10 ng/ml), Heparin (2 μg/ml) ITS liquid media supplement (1×) and non-essential amino acid (NEAA, 0.01 mM, 1×). The primary cell were cultured in a humidified atmosphere (95% relative humidity) with 5% CO2 at 37° C.
(§3) The cell growth inhibition assay was performed as described previously in example 5 using the CellTiter-Glo® luminescent cell viability assay as described by the manufacturer (Promega, Ref G7571). The number of cells seeded per well (in 96-Well Flat Clear Bottom Black Polystyrene TC-Treated Microplates, Cat #3340, Corning®) is described in the table 16. A backseal black sticker (Cat #6005189, Perkin Elmer) was placed to the bottom of each plate before recording CellTiter-Glo® luminescence.
as §1, with “V 5.0” for “v5”, “cultures and were a mean of at least three independent experiments.” for “cultures.”

[3] = tested on: LI1646 HCC patient derived cells; experiment: CellTiter-Glo growth inhibition, HCC patient-derived cells LI1646; assay type: cell-based, human; details: Homo sapiens; LI1646, 72 hours
Experimental: as §2, §3
as §1, with “V 5.0” for “v5”, “cultures and were a mean of at least three independent experiments.” for “cultures.”

[4] = tested on: LI0574 HCC patient derived cells; experiment: CellTiter-Glo growth inhibition, HCC patient-derived cells LI0574; assay type: cell-based, human; details: Homo sapiens; LI0574, 72 hours
Experimental: as §2, §3
as §1, with “V 5.0” for “v5”, “cultures and were a mean of at least three independent experiments.” for “cultures.”

786-O cell line = experiment: CellTiter-Glo growth inhibition assay, 786-O; assay type: cell-based; details: Homo sapiens, 786-0, 72 h
Experimental: (§4) CAKI-1 and 786-0 cell lines were maintained in RPMI 1640 medium (Dutscher, L0498) containing 1% penicillin-streptomycin (Dutscher, P06-07100) and 10% Fetal Bovine Serum (Gibco, W3387L) and cultured at 37° C. with 5% CO2.
(§5) Cell viability was measured using the CellTiter-Glo® luminescent cell viability assay as described by the manufacturer (Promega, Ref G7571) using an Infinite F200Pro luminometer (Tecan). Briefly, cells were plated onto 96-well plates (white with clear bottom) in 90 μL of media per well and were allowed to grow overnight before the assay.
(§6) Compounds 2-3 and two reference compounds (Sorafenib and Sunitinib) were added at different concentrations to each well, and cell cultures were incubated for 72 h. For compound 2-3 analysis, H2O was used as a negative control (=untreated) and all concentrations were tested in a constant percentage of H2O. For Sorafenib and Sunitinib analysis, DMSO was used as a negative control (=untreated) and all concentrations were tested in a constant percentage of DMSO. 72 h after incubation of compounds, 100 μL of CellTiter-Glo® were added to each well and luminescence was measured using an Infinite F200Pro (Tecan). EC50 values were determined as the dose of compound required to reduce luminescent values to 50% of the signal obtained for untreated cell cultures. The experimental data were analyzed using a computer program, Graphpad Prism v5 (GraphPad Software, Inc. La Jolla, Calif.). All experiments were at least done in triplicate and repeated at least three independent times.

[5] = tested on: LI1098 HCC patient derived cells; experiment: CellTiter-Glo growth inhibition, HCC patient-derived cells LI1098; assay type: cell-based, human; details: Homo sapiens; LI1098, 72 hours
Experimental: as §2, §3
as §1, with “V 5.0” for “v5”, “cultures and were a mean of at least three independent experiments.” for “cultures.”

[6] = tested on: LI0050 HCC patient derived cells; experiment: CellTiter-Glo growth inhibition, HCC patient-derived cells LI0050; assay type: cell-based, human; details: Homo sapiens; LI0050, 72 hours
Experimental: as §2, §3
as §1, with “V 5.0” for “v5”, “cultures and were a mean of at least three independent experiments.” for “cultures.”

[7] = tested on: LI0612 HCC patient derived cells; experiment: CellTiter-Glo growth inhibition, HCC patient-derived cells LI0612; assay type: cell-based, human; details: Homo sapiens; LI0612, 72 hours
Experimental: as §2, §3
as §1, with “V 5.0” for “v5”, “cultures and were a mean of at least three independent experiments.” for “cultures.”

[8] = tested on: LI0752 HCC patient derived cells; experiment: CellTiter-Glo growth inhibition, HCC patient-derived cells LI0752; assay type: cell-based, human; details: Homo sapiens; LI0752, 72 hours
Experimental: as §2, §3
as §1, with “V 5.0” for “v5”, “cultures and were a mean of at least three independent experiments.” for “cultures.”

CAKI-1 cell line = experiment: CellTiter-Glo growth inhibition assay, CAKI-1; assay type: cell-based; details: Homo sapiens, CAKI-1, 72 h
Experimental: as §4, §5, §6

[9] = tested on: LI0801 HCC patient derived cells; experiment: CellTiter-Glo growth inhibition, HCC patient-derived cells LI0801; assay type: cell-based, human; details: Homo sapiens; LI0801, 72 hours
Experimental: as §2, §3
as §1, with “V 5.0” for “v5”, “cultures and were a mean of at least three independent experiments.” for “cultures.”

EC50 (MOLM-14 cell line): 0.29 µM
Structure (SMILES): Nc1ccn([C@@H]2O[C@H](CO)[C@@H](O)[C@@H]2O)c(=O)n1 [Cytarabin, reference compound]
ALdefluor positive CSCs (%) ([1]; MOLM-14, 1 μM): 130%
ALdefluor positive CSCs (%) ([1]; MOLM-14, 3 μM): 116%

EC50 (BEL-7402 cells line): 0.15 µM
Structure (SMILES): COc1cccc2c1C(=O)c1c(O)c3c(c(O)c1C2=O)C[C@@](O)(C(=O)CO)C[C@@H]3O[C@H]1C[C@H](N)[C@H](O)[C@H](C)O1 [Doxorubicin]

EC50 [2]: 14.5 µM
EC50 [3]: 10.3 µM
EC50 [4]: 8.7 µM
EC50 (786-O cell line): 6.8 µM
EC50 [5]: 10.9 µM
EC50 [6]: 9.1 µM
EC50 [7]: 17.9 µM
EC50 [8]: 6.3 µM
EC50 [9]: 5.7 µM
Structure (SMILES): CNC(=O)c1cc(Oc2ccc(NC(=O)Nc3ccc(Cl)c(C(F)(F)F)c3)cc2)ccn1 [Sorafenib]
EC50 (CAKI-1 cell line): 4.5 µM

EC50 (786-O cell line): 6 µM
Structure (SMILES): CCN(CC)CCNC(=O)c1c(C)[nH]c(/C=C2\C(=O)Nc3ccc(F)cc32)c1C [Sunitinib]
EC50 (CAKI-1 cell line): 1.7 µM
